The target in test [1] is angiotensin converting enzyme (ACE) (Homo sapiens, UniProt P12821). Put plainly: ACE inhibition in vitro (IC50). The format is biochemical. As to the method:
(§1) The ACE inhibitory activity of the compounds of the present invention is determined via in vitro tests using standard test procedures for ACE inhibition well known to those skilled in the art. Similarly, NEP inhibitory activity is determined via in vitro tests using standard test procedures for NEP inhibition well known to those skilled in the art.

The target of test [2] is neutral endopeptidase (NEP, EC 3.4.24.11) (Homo sapiens, UniProt P08473). Put plainly: NEP inhibition in vitro (IC50). The format is biochemical. As to the method:
as §1

The subject of test [3] is angiotensin I (AI) challenge. Briefly: A1 Challenge Assay. In kind it is in vivo, male Sprague-Dawley rats.

Chain of angiotensin converting enzyme (ACE) (P12821 30-1306, species assumed): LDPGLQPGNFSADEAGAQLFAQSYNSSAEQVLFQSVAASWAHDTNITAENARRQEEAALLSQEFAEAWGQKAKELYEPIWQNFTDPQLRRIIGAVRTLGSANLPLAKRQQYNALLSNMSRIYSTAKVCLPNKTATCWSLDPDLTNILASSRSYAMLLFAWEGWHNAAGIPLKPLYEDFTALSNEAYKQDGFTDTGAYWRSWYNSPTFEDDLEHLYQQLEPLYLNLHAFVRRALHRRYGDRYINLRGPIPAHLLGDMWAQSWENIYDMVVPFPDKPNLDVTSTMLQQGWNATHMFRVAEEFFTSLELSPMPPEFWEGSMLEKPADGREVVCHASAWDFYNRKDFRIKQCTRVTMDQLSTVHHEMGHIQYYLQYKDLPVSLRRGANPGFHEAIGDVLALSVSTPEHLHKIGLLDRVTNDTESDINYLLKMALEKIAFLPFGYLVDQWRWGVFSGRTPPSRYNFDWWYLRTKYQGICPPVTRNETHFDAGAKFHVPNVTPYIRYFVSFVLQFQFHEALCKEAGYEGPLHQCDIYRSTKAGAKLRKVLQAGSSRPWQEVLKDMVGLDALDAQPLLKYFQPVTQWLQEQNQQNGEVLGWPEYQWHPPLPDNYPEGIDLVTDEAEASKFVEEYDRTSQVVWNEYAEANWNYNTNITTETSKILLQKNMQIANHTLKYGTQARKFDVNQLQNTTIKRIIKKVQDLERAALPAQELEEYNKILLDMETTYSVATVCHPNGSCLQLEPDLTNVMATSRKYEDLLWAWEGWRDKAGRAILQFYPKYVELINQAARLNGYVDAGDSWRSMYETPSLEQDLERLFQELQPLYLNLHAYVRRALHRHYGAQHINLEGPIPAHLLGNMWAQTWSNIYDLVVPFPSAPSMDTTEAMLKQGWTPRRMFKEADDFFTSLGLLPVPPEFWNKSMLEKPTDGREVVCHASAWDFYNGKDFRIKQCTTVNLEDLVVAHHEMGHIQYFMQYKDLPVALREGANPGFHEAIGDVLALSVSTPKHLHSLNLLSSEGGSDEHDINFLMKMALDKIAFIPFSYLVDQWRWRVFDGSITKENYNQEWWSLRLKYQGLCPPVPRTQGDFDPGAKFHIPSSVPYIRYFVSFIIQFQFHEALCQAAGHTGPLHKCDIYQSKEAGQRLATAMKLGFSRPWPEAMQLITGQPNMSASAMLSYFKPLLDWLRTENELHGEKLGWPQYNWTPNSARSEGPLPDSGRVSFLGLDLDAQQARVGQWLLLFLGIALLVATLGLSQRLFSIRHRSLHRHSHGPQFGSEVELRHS
Chain of neutral endopeptidase (NEP, EC 3.4.24.11) (P08473 whole entry, species assumed): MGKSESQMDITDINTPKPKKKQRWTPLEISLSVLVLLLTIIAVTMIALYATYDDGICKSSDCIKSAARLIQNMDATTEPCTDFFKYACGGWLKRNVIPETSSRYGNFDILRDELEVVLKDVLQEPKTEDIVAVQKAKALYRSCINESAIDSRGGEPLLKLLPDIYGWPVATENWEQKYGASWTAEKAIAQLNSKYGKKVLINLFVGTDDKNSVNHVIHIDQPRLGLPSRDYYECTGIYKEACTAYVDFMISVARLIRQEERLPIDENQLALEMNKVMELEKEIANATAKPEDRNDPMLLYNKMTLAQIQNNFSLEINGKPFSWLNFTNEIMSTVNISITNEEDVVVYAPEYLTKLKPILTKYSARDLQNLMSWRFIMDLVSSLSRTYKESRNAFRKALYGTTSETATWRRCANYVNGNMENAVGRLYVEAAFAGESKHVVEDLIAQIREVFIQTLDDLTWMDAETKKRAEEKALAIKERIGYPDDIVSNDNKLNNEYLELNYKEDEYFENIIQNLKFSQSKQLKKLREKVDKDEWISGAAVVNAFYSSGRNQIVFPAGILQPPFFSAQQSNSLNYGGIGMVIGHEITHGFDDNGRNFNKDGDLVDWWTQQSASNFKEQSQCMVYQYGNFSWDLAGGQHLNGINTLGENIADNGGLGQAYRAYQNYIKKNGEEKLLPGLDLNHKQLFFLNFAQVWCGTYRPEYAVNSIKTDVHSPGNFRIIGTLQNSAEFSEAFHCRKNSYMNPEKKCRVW

For the molecule `NCCCC[C@H](NC(=O)N1CCOCC1)C(=O)NC[C@H](CC1(C(=O)N[C@@H](Cc2ccc(O)cc2)C(=O)O)CCCC1)C(=O)O` [NH2 C(O) drawing 39], the concentration for half-maximal inhibition (IC50) in test [1] came out at 8 nM; in test [2], 9 nM.

For the molecule `COC(=O)N[C@@H](CCCCN)C(=O)NC[C@H](CC1(C(=O)N[C@@H](Cc2ccc(O)cc2)C(=O)O)CCCC1)C(=O)O` [NH2 C(O) CH3 O], in test [3] (dose 30 sc), the “A1 Chall. (% inhibition)” value stood at 92%. For the same molecule, the IC50 in test [1] stood at 60 nM; in test [2], 33 nM.

Regarding `CN(C)S(=O)(=O)N[C@@H](CCCCNC(=O)OCc1ccccc1)C(=O)NC[C@H](CC1(C(=O)N[C@@H](Cc2ccc(O)cc2)C(=O)O)CCCC1)C(=O)O` [CbzNH SO2 (CH3)2 NH], the IC50 in test [1] and in test [2] was 1 nM throughout.

For `CN(C)S(=O)(=O)N[C@@H](CCCCN)C(=O)NC[C@H](CC1(C(=O)N[C@@H](Cc2ccc(O)cc2)C(=O)O)CCCC1)C(=O)O` [NH2 SO2 (CH3)2 NH], the half-inhibitory concentration (IC50) in test [2] came to 32 nM.

Regarding `CS(=O)(=O)N(CCCN)CC(=O)NC[C@H](CC1(C(=O)N[C@@H](Cc2ccc(O)cc2)C(=O)O)CCCC1)C(=O)O` [NH2 SO2 CH3], in test [3] (dose 30 sc), the “A1 Chall. (% inhibition)” value is 81%. Moreover, the 50% inhibitory concentration (IC50) in test [1] turned out to be 6 nM; in test [2] it was 1 nM.

Consider `COC(=O)N[C@@H](CCCCNC(=O)OCc1ccccc1)C(=O)NC[C@H](CC1(C(=O)N[C@@H](Cc2ccc(O)cc2)C(=O)O)CCCC1)C(=O)O` [CbzNH C(O) CH3 O], for which, in test [3] (dose 30 sc), the “A1 Chall. (% inhibition)” value was 49%. Also, the IC50 in test [1] was found to be 15 nM; in test [2], 8 nM.

As for `CN(C)C(=O)N[C@@H](CCCCNC(=O)OCc1ccccc1)C(=O)NC[C@H](CC1(C(=O)N[C@@H](Cc2ccc(O)cc2)C(=O)O)CCCC1)C(=O)O` [CbzNH C(O) (CH3)2 NH], the “A1 Chall. (% inhibition)” value in test [3] (dose 30 sc) is 88%. Besides, the half-inhibitory concentration (IC50) in test [1] was 450 nM; in test [2], 2 nM.

In the case of `O=C(NCCCC[C@H](NC(=O)N1CCOCC1)C(=O)NC[C@H](CC1(C(=O)N[C@@H](Cc2ccc(O)cc2)C(=O)O)CCCC1)C(=O)O)OCc1ccccc1` [CbzNH C(O) drawing 38], the half-maximal inhibitory concentration (IC50) in test [1] and in test [2] was 2 nM throughout.

Turning to `CN(C)C(=O)N[C@@H](CCCCN)C(=O)NC[C@H](CC1(C(=O)N[C@@H](Cc2ccc(O)cc2)C(=O)O)CCCC1)C(=O)O` [NH2 C(O) (CH3)2 NH], the figures for the IC50 in test [1] and in test [2] were 15 nM and 1 nM, respectively.

Take `CS(=O)(=O)N(CCCNC(=O)OCc1ccccc1)CC(=O)NC[C@H](CC1(C(=O)N[C@@H](Cc2ccc(O)cc2)C(=O)O)CCCC1)C(=O)O` [CbzNH SO2 CH3]: the “A1 Chall. (% inhibition)” value in test [3] (dose 10 sc) was 100%. In addition, the results for the IC50 in test [1] and in test [2] were 40 nM and 2 nM, respectively.

As a reminder, the IC50 is the concentration at which inhibition is half-maximal. Higher therefore signals weaker potency in that assay.

The values are drawn from US5208236A, “N-(acylaminomethyl)glutaryl amino acids and use” (Schering Corporation, priority 1992, dated 1993).
